Results reported in patent publication US20130217664A1, “NOVEL COMPOUNDS USEFUL FOR THE TREATMENT OF DEGENERATIVE AND INFLAMMATORY DISEASES” (priority 2012, published 2013).

Key:
[1] = target: T1, human JAK2 (Homo sapiens, UniProt O60674); test: JAK2 inhibition assay (polyGT substrate / Ulight-JAK1 peptide); assay type: biochemical; details: recombinant human JAK2 catalytic domain; polyGT or Ulight-JAK1 peptide assay
T1 construct: catalytic domain (amino acids 808-1132; catalog number PV4210); GST; purchased Invitrogen PV4210
Method in brief: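 Radiometric: 0.025 mU JAK2 with 2.5 μg polyGT, 1 μM ATP plus ^33P-ATP in MOPS pH 7.5 buffer, 1% DMSO, 90 min at 30° C.; filter counting. Alternative TR-FRET format with Ulight-JAK1 peptide, 60 min at room temperature, Eu-anti-phosphotyrosine detection.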

[2] = target: T2, human JAK3 (Homo sapiens, UniProt P52333); test: JAK3 inhibition assay; assay type: biochemical; details: recombinant human JAK3 catalytic domain; polyGT substrate
T2 construct: catalytic domain (amino acids 781-1124; catalog number PV3855); purchased Invitrogen PV3855
Method in brief: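 Radiometric kinase assay: 0.5 ng JAK3 with 2.5 μg polyGT in Tris pH 7.5/MgCl2 buffer, 1 μM ATP plus 0.25 μCi 33P-γ-ATP, 1% DMSO, 45 min at 30 °C, stopped with phosphoric acid.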

[3] = target: T3, human TYK2 (Homo sapiens, UniProt P29597); test: TYK2 inhibition assay; assay type: biochemical; details: recombinant human TYK2 catalytic domain, polyGT substrate
T3 construct: catalytic domain (amino acids 871-1187; catalog number 08-147); purchased Carna Biosciences 08-147
T3 sequence (P29597 871-1187): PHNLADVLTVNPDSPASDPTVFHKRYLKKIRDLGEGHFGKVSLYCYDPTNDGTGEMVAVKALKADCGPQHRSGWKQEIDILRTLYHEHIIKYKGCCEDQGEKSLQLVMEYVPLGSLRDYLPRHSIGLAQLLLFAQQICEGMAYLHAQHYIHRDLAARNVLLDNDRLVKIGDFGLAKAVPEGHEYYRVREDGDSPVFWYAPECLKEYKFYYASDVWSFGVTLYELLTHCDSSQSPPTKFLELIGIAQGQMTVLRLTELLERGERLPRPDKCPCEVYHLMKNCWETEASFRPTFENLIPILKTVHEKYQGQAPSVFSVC
Method in brief: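 Radiometric kinase reaction run 90 min at 30 °C, stopped with phosphoric acid, washed and scintillation-counted.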

[4] = tested on: CTLL-2 cell line; test: CTLL2 viability assay; assay type: cell-based; details: Mus musculus, IL-2 dependent CTLL2 viability, 24 h, ATP-lite
Text: The protocol describes the methods to analyse the activity of compounds on their ability to sustain the IL2-dependent viability of CTLL2.
Final DMSO concentration was 0.1%.

[5] = target: T4, human JAK1 (Homo sapiens, UniProt P23458); test: JAK1 inhibition assay (polyGT substrate / Ulight-JAK1 peptide); assay type: biochemical; details: recombinant human JAK1 catalytic domain; polyGT or Ulight-JAK1 peptide assay
T4 construct: catalytic domain, amino acids 866-1154; catalog number PV4774; purchased Invitrogen PV4774
Method in brief: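 Two formats. PolyGT radiometric: 45 min at 30 °C, stopped with phosphoric acid, counted as cpm. Ulight-JAK1 peptide: 60 min at room temperature, stopped with Eu-anti-phosphotyrosine/EDTA, read as RFU. Percent inhibition normalised to vehicle and 10 μM staurosporine.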

T4 sequence (P23458 866-1154): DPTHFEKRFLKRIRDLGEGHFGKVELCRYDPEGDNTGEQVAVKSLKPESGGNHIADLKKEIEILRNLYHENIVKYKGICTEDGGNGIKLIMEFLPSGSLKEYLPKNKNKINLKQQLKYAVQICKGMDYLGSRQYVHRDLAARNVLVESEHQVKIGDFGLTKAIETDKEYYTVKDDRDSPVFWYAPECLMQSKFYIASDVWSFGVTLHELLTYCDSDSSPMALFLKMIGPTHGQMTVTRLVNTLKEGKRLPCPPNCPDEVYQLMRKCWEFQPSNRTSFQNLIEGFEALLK
T2 sequence (P52333 781-1124): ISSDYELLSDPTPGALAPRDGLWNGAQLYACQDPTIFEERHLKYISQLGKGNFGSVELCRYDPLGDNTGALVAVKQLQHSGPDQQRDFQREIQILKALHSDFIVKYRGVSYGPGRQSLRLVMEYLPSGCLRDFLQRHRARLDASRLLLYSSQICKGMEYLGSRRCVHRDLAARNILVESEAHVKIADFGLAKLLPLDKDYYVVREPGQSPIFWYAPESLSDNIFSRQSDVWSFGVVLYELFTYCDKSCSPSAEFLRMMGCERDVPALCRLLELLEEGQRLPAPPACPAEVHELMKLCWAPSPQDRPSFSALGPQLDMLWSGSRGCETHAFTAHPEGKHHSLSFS
T1 sequence (O60674 808-1132): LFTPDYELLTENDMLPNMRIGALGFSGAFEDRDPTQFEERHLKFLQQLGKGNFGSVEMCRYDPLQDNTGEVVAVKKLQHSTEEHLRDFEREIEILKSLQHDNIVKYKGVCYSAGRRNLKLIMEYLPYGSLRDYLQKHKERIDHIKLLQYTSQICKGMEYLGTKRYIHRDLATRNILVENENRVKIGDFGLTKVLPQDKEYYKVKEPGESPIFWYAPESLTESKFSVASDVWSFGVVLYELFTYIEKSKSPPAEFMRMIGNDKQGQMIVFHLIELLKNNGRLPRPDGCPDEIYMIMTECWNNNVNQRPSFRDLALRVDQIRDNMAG

| Structure (SMILES) | IC50 [1] | IC50 [2] | IC50 [3] | IC50 [4] | IC50 [5] |
| --- | --- | --- | --- | --- | --- |
| CCc1cc(C(C#N)N2CC[C@@H](F)C2)ccc1N(C)c1cc2c(cn1)ncn2C (stereo partly drawn) [Compound 438, {3-Ethyl-4-[methyl-(1-methyl-1H-imidazo[4,5-c]pyridin-6-yl)-amino]-phenyl}-((R)-3-fluoro-pyrrolidin-1-yl)-acetonitrile] | 0.01 to 100 nM | 101 to 500 nM | 0.01 to 100 nM | > 1000 nM | 0.01 to 100 nM |
| CCOC(=O)C1CN(C(C#N)c2ccc(N(C)c3cc4c(cn3)ncn4C)c(CC)c2)C1 (stereo not shown) [Compound 453, 1-(Cyano-{3-ethyl-4-[methyl-(1-methyl-1H-imidazo[4,5-c]pyridin-6-yl)-amino]-phenyl}-methyl)-azetidine-3-carboxylic acid ethyl ester] | 0.01 to 100 nM | 501 to 1000 nM | 0.01 to 100 nM | > 1000 nM | 0.01 to 100 nM |
| CCc1cc(C(C#N)N2CCC(C(N)=O)CC2)ccc1N(C)c1cc2c(cn1)ncn2C (stereo not shown) [Compound 451, 1-(Cyano-{3-ethyl-4-[methyl-(1-methyl-1H-imidazo[4,5-c]pyridin-6-yl)-amino]-phenyl}-methyl)-piperidine-4-carboxylic acid amide] | 0.01 to 100 nM | 101 to 500 nM | 0.01 to 100 nM | > 1000 nM | 0.01 to 100 nM |
| CN(c1cc2c(cn1)ncn2C)c1ccc(C2CN(CC(F)F)C2)cc1OC(F)F [Compound 365, {4-[1-(2,2-Difluoro-ethyl)-azetidin-3-yl]-2-difluoromethoxy-phenyl}-methyl-(1-methyl-1H-imidazo[4,5-c]pyridin-6-yl)-amine] | 101 to 500 nM | 101 to 500 nM | 501 to 1000 nM | > 1000 nM | 0.01 to 100 nM |
| CCc1cc(C(C#N)N2CC(F)(F)C2)ccc1N(C)c1cc2c(cn1)ncn2C (stereo not shown) [Compound 440, (3,3-Difluoro-azetidin-1-yl)-{3-ethyl-4-[methyl-(1-methyl-1H-imidazo[4,5-c]pyridin-6-yl)-amino]-phenyl}-acetonitrile] | 0.01 to 100 nM | 101 to 500 nM | 0.01 to 100 nM | > 1000 nM | 0.01 to 100 nM |
| CCc1cc(C(C#N)N2CC(NC(=O)OC(C)(C)C)C2)ccc1N(C)c1cc2c(cn1)ncn2C (stereo not shown) [Compound 436, [1-(Cyano-{3-ethyl-4-[methyl-(1-methyl-1H-imidazo[4,5-c]pyridin-6-yl)-amino]-phenyl}-methyl)-azetidin-3-yl]-carbamic acid tert-butyl ester] | 0.01 to 100 nM | 101 to 500 nM | 0.01 to 100 nM | > 1000 nM | 0.01 to 100 nM |
| CCc1cc(C2CCCC2)ncc1N(C)c1cc2c(cn1)ncn2C [Compound 433, (6-Cyclopentyl-4-ethyl-pyridin-3-yl)-methyl-(1-methyl-1H-imidazo[4,5-c]pyridin-6-yl)-amine] | 0.01 to 100 nM | 101 to 500 nM | 101 to 500 nM | > 1000 nM | 0.01 to 100 nM |
| CCc1cc(N2CC[C@H](F)C2)ncc1N(C)c1cc2c(cn1)ncn2C [Compound 415, [4-Ethyl-6-((S)-3-fluoro-pyrrolidin-1-yl)-pyridin-3-yl]-methyl-(1-methyl-1H-imidazo[4,5-c]pyridin-6-yl)-amine] | 0.01 to 100 nM | 0.01 to 100 nM | 0.01 to 100 nM | > 1000 nM | 0.01 to 100 nM |
| CCc1cc(C(C#N)N2CCC(C#N)C2)ccc1N(C)c1cc2c(cn1)ncn2C (stereo not shown) [Compound 445, 1-(Cyano-{3-ethyl-4-[methyl-(1-methyl-1H-imidazo[4,5-c]pyridin-6-yl)-amino]-phenyl}-methyl)-pyrrolidine-3-carbonitrile] | 0.01 to 100 nM | 101 to 500 nM | 0.01 to 100 nM | > 1000 nM | 0.01 to 100 nM |
| CCc1cc(CNS(=O)(=O)N2CCC(F)(F)C2)ccc1N(C)c1cc2c(cn1)ncn2C [Compound 425, 3,3-Difluoro-pyrrolidine-1-sulfonic acid 3-ethyl-4-[methyl-(1-methyl-1H-imidazo[4,5-c]pyridin-6-yl)-amino]-benzylamide] | 0.01 to 100 nM | 101 to 500 nM | 101 to 500 nM | > 1000 nM | 0.01 to 100 nM |
| CCc1cc(C2CCCCC2)ncc1N(C)c1cc2c(cn1)ncn2C [Compound 432, (6-Cyclohexyl-4-ethyl-pyridin-3-yl)-methyl-(1-methyl-1H-imidazo[4,5-c]pyridin-6-yl)-amine] | 101 to 500 nM | > 1000 nM | 101 to 500 nM | > 1000 nM | 0.01 to 100 nM |
| CCc1cc(C2CCN(CC#N)CC2)ncc1N(C)c1cc2c(cn1)ncn2C [Compound 384, {4-Ethyl-5-(methyl-(1-methyl-1H-imidazo[4,5-c]pyridin-6-yl)-amino)-3′,4′,5′,6′-tetrahydro-2′H-(2,4′]bipyridinyl-1′-yl}-acetonitrile] | 101 to 500 nM | > 1000 nM | 101 to 500 nM | > 1000 nM | 0.01 to 100 nM |
| CCc1cc(C(C#N)N2CCN(C)CC2)ccc1N(C)c1cc2c(cn1)ncn2C (stereo not shown) [Compound 449, {3-Ethyl-4-[methyl-(1-methyl-1H-imidazo[4,5-c]pyridin-6-yl)-amino]-phenyl}-(4-methyl-piperazin-1-yl)-acetonitrile] | 101 to 500 nM | > 1000 nM | 0.01 to 100 nM | > 1000 nM | 0.01 to 100 nM |
| CCc1cc(CNS(=O)(=O)N2CCOCC2)ccc1N(C)c1cc2c(cn1)ncn2C [Compound 426, Morpholine-4-sulfonic acid 3-ethyl-4-[methyl-(1-methyl-1H-imidazo[4,5-c]pyridin-6-yl)-amino]-benzylamide] | 0.01 to 100 nM | 101 to 500 nM | 101 to 500 nM | > 1000 nM | 0.01 to 100 nM |
| CCc1cc(C(C#N)N2CCC(S(C)(=O)=O)CC2)ccc1N(C)c1cc2c(cn1)ncn2C (stereo not shown) [Compound 452, {3-Ethyl-4-[methyl-(1-methyl-1H-imidazo[4,5-c]pyridin-6-yl)-amino]-phenyl}-(4-methanesulfonyl-piperidin-1-yl)-acetonitrile] | 0.01 to 100 nM | 0.01 to 100 nM | 0.01 to 100 nM | 501 to 1000 nM | 0.01 to 100 nM |
| CCc1cc(CN2CC3(COC3)C2)ccc1N(C)c1cc2c(cn1)ncn2C [Compound 419, [2-Ethyl-4-(2-oxa-6-aza-spiro[3.3]hept-6-ylmethyl)-phenyl]-methyl-(1-methyl-1H-imidazo[4,5-c]pyridin-6-yl)-amine] | > 1000 nM | > 1000 nM | > 1000 nM | > 1000 nM | 101 to 500 nM |
| CCc1cc(C(C#N)N2CCC(CO)CC2)ccc1N(C)c1cc2c(cn1)ncn2C (stereo not shown) [Compound 437, {3-Ethyl-4-[methyl-(1-methyl-1H-imidazo[4,5-c]pyridin-6-yl)-amino]-phenyl}-(4-hydroxymethyl-piperidin-1-yl)-acetonitrile] | 0.01 to 100 nM | 101 to 500 nM | 0.01 to 100 nM | > 1000 nM | 0.01 to 100 nM |
| CCc1cc(C(C#N)N2CCC(O)CC2)ccc1N(C)c1cc2c(cn1)ncn2C (stereo not shown) [Compound 447, {3-Ethyl-4-[methyl-(1-methyl-1H-imidazo[4,5-c]pyridin-6-yl)-amino]-phenyl}-(4-hydroxy-piperidin-1-yl)-acetonitrile] | 0.01 to 100 nM | 101 to 500 nM | 0.01 to 100 nM | > 1000 nM | 0.01 to 100 nM |
| CCc1cc(C(C#N)N2CCC[C@@H]2COC)ccc1N(C)c1cc2c(cn1)ncn2C (stereo partly drawn) [Compound 439, {3-Ethyl-4-[methyl-(1-methyl-1H-imidazo[4,5-c]pyridin-6-yl)-amino]-phenyl}-((R)-2-methoxymethyl-pyrrolidin-1-yl)-acetonitrile] | 101 to 500 nM | 501 to 1000 nM | 0.01 to 100 nM | > 1000 nM | 0.01 to 100 nM |
| CCc1cc(CNS(=O)(=O)N2CC(F)(F)C2)ccc1N(C)c1cc2c(cn1)ncn2C [Compound 424, 3,3-Difluoro-azetidine-1-sulfonic acid 3-ethyl-4-[methyl-(1-methyl-1H-imidazo[4,5-c]pyridin-6-yl)-amino]-benzylamide] | 0.01 to 100 nM | 101 to 500 nM | 101 to 500 nM | > 1000 nM | 0.01 to 100 nM |
